From PubChem BioAssay (NCI)
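Where inhibition never reached the appropriate level, the endpoint shown equals the highest concentration tested. Otherwise, values were interpolated linearly from a five-concentration, 48-hour dose response in 96-well plates. At the GI50, growth is halved. TGI marks complete inhibition of growth.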

Legend:
Assay in all cases: growth of human tumour cells (NCI), 48 h
SK-MEL-2 melanoma = system: SK-MEL-2 melanoma
OVCAR-4 ovarian = system: OVCAR-4 ovarian
HL-60(TB) leukemia = system: HL-60(TB) leukemia
BT-549 breast = system: BT-549 breast
EKVX NSCLC = system: EKVX NSCLC
HCT-116 colon = system: HCT-116 colon
NCI-H23 lung = system: NCI-H23 lung
HT29 colon = system: HT29 colon
HOP-92 NSCLC = system: HOP-92 NSCLC
SK-MEL-5 melanoma = system: SK-MEL-5 melanoma
ACHN renal = system: ACHN renal
SK-MEL-28 melanoma = system: SK-MEL-28 melanoma
HCT-15 colon = system: HCT-15 colon
UO-31 renal = system: UO-31 renal
LOX IMVI melanoma = system: LOX IMVI melanoma
CAKI-1 renal = system: CAKI-1 renal
SW-620 colon = system: SW-620 colon
NCI/ADR-RES ovarian = system: NCI/ADR-RES ovarian
COLO 205 colon = system: COLO 205 colon
HOP-62 NSCLC = system: HOP-62 NSCLC
SNB-75 CNS = system: SNB-75 CNS
A498 renal = system: A498 renal
M14 melanoma = system: M14 melanoma
MALME-3M melanoma = system: MALME-3M melanoma
HCC-2998 colon = system: HCC-2998 colon
MCF7 breast = system: MCF7 breast
786-0 renal = system: 786-0 renal
NCI-H226 lung = system: NCI-H226 lung
OVCAR-3 ovarian = system: OVCAR-3 ovarian
HS 578T breast = system: HS 578T breast
SNB-19 CNS = system: SNB-19 CNS
A549 NSCLC = system: A549 NSCLC
NCI-H460 lung = system: NCI-H460 lung
DU-145 prostate = system: DU-145 prostate
T-47D breast = system: T-47D breast
SF-268 CNS = system: SF-268 CNS
SK-OV-3 ovarian = system: SK-OV-3 ovarian
RPMI-8226 leukemia = system: RPMI-8226 leukemia
MDA-MB-231 breast = system: MDA-MB-231 breast
UACC-62 melanoma = system: UACC-62 melanoma
TK-10 renal = system: TK-10 renal
CCRF-CEM leukemia = system: CCRF-CEM leukemia
OVCAR-8 ovarian = system: OVCAR-8 ovarian
MOLT-4 leukemia = system: MOLT-4 leukemia
OVCAR-5 ovarian = system: OVCAR-5 ovarian
NCI-H522 lung = system: NCI-H522 lung
SF-295 CNS = system: SF-295 CNS
SF-539 CNS = system: SF-539 CNS
IGROV1 ovarian = system: IGROV1 ovarian
RXF 393 renal = system: RXF 393 renal
MDA-MB-435 = system: MDA-MB-435
SR leukemia = system: SR leukemia
PC-3 prostate = system: PC-3 prostate
K-562 leukemia = system: K-562 leukemia
U251 CNS = system: U251 CNS
SN12C renal = system: SN12C renal
KM12 colon = system: KM12 colon
UACC-257 melanoma = system: UACC-257 melanoma

Work on `Cc1cccc(/C=C/C(=O)Nc2ncc(Cc3cccc(C)c3)s2)c1` yielded a GI50 (SK-MEL-2 melanoma) of 627 nM, a TGI (SK-MEL-2 melanoma) of 4750 nM and a GI50 (OVCAR-4 ovarian) of 1390 nM. It also gave a TGI (OVCAR-4 ovarian) of over 100000 nM, a GI50 (HL-60(TB) leukemia) of 579 nM and a TGI (HL-60(TB) leukemia) of 1970 nM. The GI50 (BT-549 breast) was 1290 nM, the TGI (BT-549 breast) was over 100000 nM and the GI50 (EKVX NSCLC) was 1220 nM. It also gave a TGI (EKVX NSCLC) of over 100000 nM, a GI50 (HCT-116 colon) of 1100 nM and a TGI (HCT-116 colon) of over 100000 nM. For the same molecule, the GI50 (NCI-H23 lung) was 6620 nM, the TGI (NCI-H23 lung) was over 100000 nM and the GI50 (HT29 colon) was 739 nM. The TGI (HT29 colon) was 2580 nM, the GI50 (HOP-92 NSCLC) was 1250 nM and the TGI (HOP-92 NSCLC) was over 100000 nM. For the same molecule, the GI50 (SK-MEL-5 melanoma) was 1230 nM, the TGI (SK-MEL-5 melanoma) was over 81100 nM and the GI50 (ACHN renal) was 1060 nM. The TGI (ACHN renal) was over 100000 nM, the GI50 (SK-MEL-28 melanoma) was 1930 nM and the TGI (SK-MEL-28 melanoma) was over 100000 nM. For the same molecule, the GI50 (HCT-15 colon) was 585 nM, the TGI (HCT-15 colon) was over 100000 nM and the GI50 (UO-31 renal) was 618 nM. It also gave a TGI (UO-31 renal) of over 100000 nM, a GI50 (LOX IMVI melanoma) of 841 nM and a TGI (LOX IMVI melanoma) of over 100000 nM. It also gave a GI50 (CAKI-1 renal) of 518 nM, a TGI (CAKI-1 renal) of over 100000 nM and a GI50 (SW-620 colon) of 1130 nM. For the same molecule, the TGI (SW-620 colon) was over 100000 nM, the GI50 (NCI/ADR-RES ovarian) was 869 nM and the TGI (NCI/ADR-RES ovarian) was over 100000 nM. The GI50 (COLO 205 colon) was 766 nM, the TGI (COLO 205 colon) was 3000 nM and the GI50 (HOP-62 NSCLC) was 633 nM. The TGI (HOP-62 NSCLC) was over 100000 nM, the GI50 (SNB-75 CNS) was 903 nM and the TGI (SNB-75 CNS) was over 20500 nM. The GI50 (A498 renal) was over 27700 nM, the TGI (A498 renal) was over 100000 nM and the GI50 (M14 melanoma) was 568 nM. The TGI (M14 melanoma) was 1890 nM, the GI50 (MALME-3M melanoma) was 1300 nM and the TGI (MALME-3M melanoma) was over 100000 nM. It also gave a GI50 (HCC-2998 colon) of 1680 nM, a TGI (HCC-2998 colon) of over 100000 nM and a GI50 (MCF7 breast) of 820 nM. It also gave a TGI (MCF7 breast) of over 100000 nM, a GI50 (786-0 renal) of 1190 nM and a TGI (786-0 renal) of over 100000 nM. It also gave a GI50 (NCI-H226 lung) of 1280 nM, a TGI (NCI-H226 lung) of over 100000 nM and a GI50 (OVCAR-3 ovarian) of 1050 nM. It also gave a TGI (OVCAR-3 ovarian) of 8550 nM, a GI50 (HS 578T breast) of 1040 nM and a TGI (HS 578T breast) of over 100000 nM. It also gave a GI50 (SNB-19 CNS) of 1400 nM, a TGI (SNB-19 CNS) of over 100000 nM and a GI50 (A549 NSCLC) of 1020 nM. It also gave a TGI (A549 NSCLC) of over 100000 nM, a GI50 (NCI-H460 lung) of 545 nM and a TGI (NCI-H460 lung) of over 100000 nM. The GI50 (DU-145 prostate) was 876 nM, the TGI (DU-145 prostate) was over 100000 nM and the GI50 (T-47D breast) was 575 nM. The TGI (T-47D breast) was over 100000 nM, the GI50 (SF-268 CNS) was 2540 nM and the TGI (SF-268 CNS) was over 100000 nM. The GI50 (SK-OV-3 ovarian) was 1670 nM, the TGI (SK-OV-3 ovarian) was over 100000 nM and the GI50 (RPMI-8226 leukemia) was 1140 nM. The TGI (RPMI-8226 leukemia) was over 100000 nM, the GI50 (MDA-MB-231 breast) was 2920 nM and the TGI (MDA-MB-231 breast) was over 100000 nM. The GI50 (UACC-62 melanoma) was 144 nM, the TGI (UACC-62 melanoma) was over 100000 nM and the GI50 (TK-10 renal) was over 25600 nM. It also gave a TGI (TK-10 renal) of over 100000 nM, a GI50 (CCRF-CEM leukemia) of 884 nM and a TGI (CCRF-CEM leukemia) of over 100000 nM. The GI50 (OVCAR-8 ovarian) was 1360 nM, the TGI (OVCAR-8 ovarian) was over 100000 nM and the GI50 (MOLT-4 leukemia) was 710 nM. The TGI (MOLT-4 leukemia) was over 100000 nM, the GI50 (OVCAR-5 ovarian) was 1440 nM and the TGI (OVCAR-5 ovarian) was over 100000 nM. The GI50 (NCI-H522 lung) was 599 nM, the TGI (NCI-H522 lung) was 2080 nM and the GI50 (SF-295 CNS) was 329 nM. The TGI (SF-295 CNS) was 2460 nM, the GI50 (SF-539 CNS) was 863 nM and the TGI (SF-539 CNS) was over 32500 nM. The GI50 (IGROV1 ovarian) was 1670 nM, the TGI (IGROV1 ovarian) was over 100000 nM and the GI50 (RXF 393 renal) was 910 nM. The TGI (RXF 393 renal) was 5950 nM, the GI50 (MDA-MB-435) was 303 nM and the TGI (MDA-MB-435) was 1140 nM. The GI50 (SR leukemia) was 179 nM, the TGI (SR leukemia) was over 100000 nM and the GI50 (PC-3 prostate) was 875 nM. It also gave a TGI (PC-3 prostate) of over 100000 nM, a GI50 (K-562 leukemia) of 117 nM and a TGI (K-562 leukemia) of over 100000 nM. For the same molecule, the GI50 (U251 CNS) was 1110 nM, the TGI (U251 CNS) was over 100000 nM and the GI50 (SN12C renal) was 1680 nM. For the same molecule, the TGI (SN12C renal) was over 100000 nM, the GI50 (KM12 colon) was 339 nM and the TGI (KM12 colon) was over 75000 nM. It also gave a GI50 (UACC-257 melanoma) of 1590 nM and a TGI (UACC-257 melanoma) of over 100000 nM.
